# Experimental data taken from ChEMBL document CHEMBL5393444, “Sulfonamide derivatives as ctps1 inhibitors” (2022).
# Target: T1, CTP synthase 1 (Homo sapiens, UniProt P17812)
# T1 sequence (P17812 whole entry): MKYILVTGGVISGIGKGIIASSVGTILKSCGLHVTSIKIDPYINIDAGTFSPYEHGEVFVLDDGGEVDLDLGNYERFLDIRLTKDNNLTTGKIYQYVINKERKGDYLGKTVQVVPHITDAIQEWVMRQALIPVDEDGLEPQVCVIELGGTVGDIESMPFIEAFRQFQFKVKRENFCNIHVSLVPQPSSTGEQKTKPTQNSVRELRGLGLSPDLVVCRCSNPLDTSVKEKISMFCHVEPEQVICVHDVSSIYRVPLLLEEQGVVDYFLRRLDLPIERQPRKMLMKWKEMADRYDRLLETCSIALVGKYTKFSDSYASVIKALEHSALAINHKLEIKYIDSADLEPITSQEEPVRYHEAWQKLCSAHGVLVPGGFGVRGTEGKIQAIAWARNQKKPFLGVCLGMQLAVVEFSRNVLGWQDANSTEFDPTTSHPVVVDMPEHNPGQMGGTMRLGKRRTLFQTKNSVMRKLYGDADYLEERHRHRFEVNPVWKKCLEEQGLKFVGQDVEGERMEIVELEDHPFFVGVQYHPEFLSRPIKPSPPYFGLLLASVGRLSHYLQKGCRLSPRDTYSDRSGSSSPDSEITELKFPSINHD
# Experiment: Inhibition of C-terminal FLAG-His8-tagged full length human CTPS1 preincubated for 10 mins followed by substrate addition by ADP-Glo assay
row,SMILES,IC50 [nM]
1,CCOc1cncc(-c2ccc(NC(=O)C3(c4ccnc(NS(=O)(=O)C5CC5)n4)CCOCC3)cc2)n1,≤ 100
2,CCC(F)(C(=O)Nc1ccc(-c2cncc(C3CC3)n2)cn1)c1ccnc(NS(=O)(=O)C2CC2)n1 (stereo not drawn),≤ 100
3,CCOc1cncc(-c2ccc(NC(=O)C(c3ccnc(NS(=O)(=O)C4CC4)n3)C(C)C)c(F)c2)n1 (stereo not drawn),≤ 100
4,CCOc1cncc(-c2ccc(NC(=O)C(C)(OC)c3cncc(NS(=O)(=O)C4CC4)n3)nc2)n1 (stereo not drawn),≤ 100
5,CC(C)(C(=O)Nc1ccc(-c2cncc(OC(F)F)c2)cc1)c1ccnc(NS(=O)(=O)C2CC2)n1,≤ 100
6,O=C(Cc1ccnc(NS(=O)(=O)C2CC2)n1)Nc1ccc(-c2cncc(C(F)(F)F)n2)cc1,≤ 100
7,CCOc1cncc(-c2ccc(NC(=O)C(C)(C)c3ccnc(NS(C)(=O)=O)n3)cc2)n1,≤ 100
8,CCOc1cncc(-c2cnc(NC(=O)C(C)(C)c3ccnc(NS(=O)(=O)C4CC4)n3)c(F)c2)n1,≤ 100
9,Cc1ncc(-c2ccc(NC(=O)C(C)(C)c3ccnc(NS(C)(=O)=O)n3)c(C)c2)cn1,≥ 1000
10,CCOc1cncc(-c2ccc(NC(=O)C(C)(C)c3ccnc(NS(=O)(=O)C4CC4)n3)c(OC(F)(F)F)c2)n1,≤ 100
11,CC(C)(C(=O)Nc1ccc(-c2cncc(C(F)(F)F)n2)cc1F)c1ccnc(NS(=O)(=O)C2CC2)n1,≤ 100
12,O=C(Cc1ccnc(NS(=O)(=O)C2CC2)n1)Nc1ccc(-c2cncc(C(F)(F)F)n2)cc1F,≤ 100
13,COc1cncc(-c2ccc(NC(=O)Cc3cccc(NS(=O)(=O)C4CC4)n3)cc2)n1,≤ 100
14,CCOc1cncc(-c2ccc(NC(=O)C(C)(C)c3ccnc(NS(=O)(=O)C4CC4)n3)c(Cl)c2)n1,≤ 100
15,CCOc1cncc(-c2ccc(NC(=O)C(c3ccnc(NS(=O)(=O)C4CC4)n3)C(C)C)nc2)n1 (stereo not drawn),≤ 100
16,CCOc1cncc(-c2ccc(NC(=O)C(C)(C)c3ccnc(NS(=O)(=O)C4CC4)n3)c(OC)c2)n1,≤ 100
17,CCOc1cncc(-c2ccc(NC(=O)C3(c4cccc(NS(=O)(=O)C5CC5)n4)CCOCC3)nc2)n1,≤ 100
18,CCC(F)(C(=O)Nc1ccc(-c2cncc(Cl)c2)cn1)c1ccnc(NS(=O)(=O)C2CC2)n1 (stereo not drawn),≤ 100
19,CCOc1cncc(-c2ccc(NC(=O)C3(c4ccnc(NS(=O)(=O)C5CC5)n4)CCC(OC)CC3)nc2)n1 (stereo not drawn),≤ 100
20,CCOc1cncc(-c2ccc(NC(=O)C(F)(CC)c3cncc(NS(=O)(=O)C4CC4)n3)nc2)n1 (stereo in doubt; form 1) [listing 1 of 2 here],≤ 100
21,CCOc1cncc(-c2ccc(NC(=O)C(CC)c3nccc(NS(=O)(=O)C4CC4)n3)nc2)n1 (stereo not drawn),≤ 100
22,CC(C)Oc1cncc(-c2ccc(NC(=O)C(C)(C)c3ccnc(NS(=O)(=O)C4CC4)n3)cc2)n1,≤ 100
23,CCC(C(=O)Nc1ccc(-c2cncc(C(F)(F)F)n2)cc1F)c1ccnc(NS(=O)(=O)C2CC2)n1 (stereo not drawn),≤ 100
24,CCC(C(=O)Nc1ccc(-c2cncc(C3CC3)n2)cn1)c1ccnc(NS(=O)(=O)C2CC2)n1 (stereo not drawn),≤ 100
25,CCOc1cccc(-c2ccc(NC(=O)C(C)(C)c3ccnc(NS(=O)(=O)C4CC4)n3)cc2)c1,10000
26,CCC(C(=O)Nc1ccc(-c2cncc(Cl)c2)cn1)c1ccnc(NS(=O)(=O)C2CC2)n1 (stereo not drawn),≤ 100
27,CCC(C(=O)Nc1ccc(-c2cncc(OC(C)C)n2)cc1F)c1ccnc(NS(=O)(=O)C2CC2)n1 (stereo not drawn),≤ 100
28,CCOc1cncc(-c2ccc(C(=O)NC(CC)c3cncc(NS(=O)(=O)C4CC4)n3)c(F)c2)n1 (stereo not drawn),≤ 100
29,CCOc1cncc(-c2ccc(NC(=O)C3(c4ccnc(NS(=O)(=O)C5CC5)n4)CCC(O)CC3)nc2)n1 (stereo in doubt) [listing 1 of 2 here],≤ 100

# Continued, values first:
row,IC50 [nM],SMILES
1,≤ 100,CC(C)(C(=O)Nc1ccc(-c2cncc(C(F)(F)F)n2)cn1)c1ccnc(NS(=O)(=O)C2CC2)n1
2,≤ 100,CCOc1cncc(-c2ccc(NC(=O)C(OC)c3cncc(NS(=O)(=O)C4CC4)n3)cc2)n1 (stereo not drawn)
3,≤ 100,CCOc1cncc(-c2ccc(NC(=O)C3(c4ccnc(NS(=O)(=O)C5(C#N)CC5)n4)CCOCC3)nc2)n1
4,≤ 100,CCC(C(=O)Nc1ccc(-c2cncc(OCC(F)(F)F)n2)cn1)c1ccnc(NS(=O)(=O)C2CC2)n1 (stereo not drawn)
5,≤ 100,CCOc1cncc(-c2ccc(NC(=O)C(CC)(CC)c3ccnc(NS(=O)(=O)C4CC4)n3)cc2)n1
6,≤ 100,COc1cncc(-c2ccc(NC(=O)Cc3ccnc(NS(=O)(=O)C4CC4)n3)cc2)n1
7,≤ 100,CCOc1cncc(-c2ccc(NC(=O)C(F)(CC)c3ccnc(NS(=O)(=O)C4CC4)n3)nc2)n1 (stereo in doubt; form 1)
8,≤ 100,CCOc1cncc(-c2ccc(NC(=O)C3(c4ccnc(NS(=O)(=O)C5CC5)n4)CCC(N(C)C)CC3)nc2)n1 (stereo in doubt; form 1) [listing 1 of 2 here]
9,≤ 100,CCOc1cncc(-c2ccc(NC(=O)C(OC)c3cncc(NS(=O)(=O)C4CC4)n3)nc2)n1 (stereo not drawn)
10,≤ 100,COc1cncc(-c2ccc(NC(=O)C(C)(C)c3ccnc(NS(=O)(=O)C4CC4)n3)cc2)n1
11,≤ 100,CCOc1cncc(-c2cc(F)c(NC(=O)C(C)(C)c3ccnc(NS(=O)(=O)C4CC4)n3)c(F)c2)n1
12,≤ 100,CC(C)(C(=O)Nc1ccc(-c2cncc(C(F)(F)F)n2)cc1)c1ccnc(NS(=O)(=O)C2CC2)n1
13,≤ 100,CC(C)(C(=O)Nc1ccc(-c2cncc(OC3CC3)n2)cn1)c1ccnc(NS(=O)(=O)C2CC2)n1
14,≤ 100,CCC(NC(=O)c1ccc(-c2cncc(OC(C)C)n2)cc1)c1ccnc(NS(=O)(=O)C2CC2)n1 (stereo not drawn)
15,≤ 100,CCOc1cncc(-c2ccc(NC(=O)C(C)(C)c3ccnc(NS(=O)(=O)C4CC4)n3)cn2)n1
16,≤ 100,CCOc1cncc(-c2cnc(NC(=O)C(CCOC)c3ccnc(NS(=O)(=O)C4CC4)n3)c(F)c2)n1 (stereo not drawn)
17,≤ 100,O=C(Cc1ccnc(NS(=O)(=O)C2CC2)n1)Nc1ccc(-c2cncc(OCC(F)(F)F)n2)cc1
18,≤ 100,CCOc1cncc(-c2ccc(NC(=O)C(F)(c3ccnc(NS(=O)(=O)C4CC4)n3)C(C)C)nc2)n1 (stereo not drawn)
19,≤ 100,CCC(C(=O)Nc1ccc(-c2cncc(OC(C)C)n2)cc1)c1ccnc(NS(=O)(=O)C2CC2)n1 (stereo not drawn)
20,≤ 100,CCOc1cncc(-c2ccc(NC(=O)C(F)(F)c3ccnc(NS(=O)(=O)C4CC4)n3)c(F)c2)n1
21,≤ 1000,CCS(=O)(=O)Nc1nccc(C(C)(C)C(=O)Nc2ccc(-c3cncc(OC)n3)cc2F)n1
22,≤ 100,CCOc1cncc(-c2ccc(NC(=O)C3(c4ccnc(NS(=O)(=O)C5CC5)n4)CC4(C3)OCCO4)nc2)n1
23,≤ 100,CCC(C(=O)Nc1ccc(-c2cncc(C3CC3)n2)cc1F)c1ccnc(NS(=O)(=O)C2CC2)n1 (stereo not drawn)
24,≤ 100,CCC(C(=O)Nc1ccc(-c2cncc(OC)n2)cc1)c1ccnc(NS(=O)(=O)C2CC2)n1 (stereo not drawn)

# Organism: Homo sapiens
# Experiment: Selectivity ratio of IC50 for human CTPS2 to IC50 for human CTPS1 by RapidFire/MS analysis
row,SMILES,Ratio IC50
1,CC(C)(NC(=O)c1ccc(-c2cncc(C(F)(F)F)n2)cc1)c1cncc(NS(=O)(=O)C2CC2)n1,2
2,CCOc1cncc(-c2ccc(NC(=O)C(F)(CC)c3cncc(NS(=O)(=O)C4CC4)n3)nc2)n1 (stereo in doubt; form 1) [listing 2 of 2 here],30
3,CC(C)(C(=O)Nc1ccc(-c2cccnc2)cc1)c1ccnc(NS(=O)(=O)C2CC2)n1,2
4,CC(C)(C(=O)Nc1ccc(-c2cncc(C3CC3)n2)cn1)c1ccnc(NS(=O)(=O)C2CC2)n1,30
5,CCOc1cncc(-c2ccc(NC(=O)C3(c4ccnc(NS(=O)(=O)C5CC5)n4)CCC(O)CC3)nc2)n1 (stereo in doubt) [listing 2 of 2 here],> 60
6,CCOc1cncc(-c2ccc(NC(=O)C(F)(CC)c3ccnc(NS(=O)(=O)C4CC4)n3)nc2)n1 (stereo in doubt; form 3),> 60
7,CC(C)c1cncc(-c2ccc(NC(=O)C(C)(C)c3ccnc(NS(=O)(=O)C4CC4)n3)cc2)n1,30

# Other lines, results leading:
row,Ratio IC50,SMILES
1,2,CCC(C(=O)Nc1ccc(-c2cncc(C(F)(F)F)n2)cc1)c1ccnc(NS(=O)(=O)C2CC2)n1 (stereo not drawn)
2,> 60,CCOc1cncc(-c2ccc(NC(=O)C3(c4ccnc(NS(=O)(=O)N(C)C)n4)CCOCC3)nc2)n1
3,30,CCOc1cncc(-c2ccc(NC(=O)C(C)(C)c3nc(NS(=O)(=O)C4CC4)ncc3F)cc2)n1
4,30,CCOc1cncc(-c2ccc(NC(=O)C(C)(C)c3ccnc(NS(=O)(=O)CC)n3)cc2)n1
5,30,CCOc1cncc(-c2ccc(NC(=O)C(C)(C)c3ccnc(NS(C)(=O)=O)n3)nc2)n1
6,30,O=C(Cc1ccnc(NS(=O)(=O)C2CC2)n1)Nc1ccc(-c2cccnc2)cc1
7,2,CCOc1cncc(-c2ccc(NC(=O)C(F)(CC)c3ccnc(NS(=O)(=O)C4CC4)n3)nc2)n1 (stereo in doubt; form 2)
8,> 60,CCOc1cncc(-c2ccc(NC(=O)C3(c4ccnc(NS(=O)(=O)C5CC5)n4)CCC(N(C)C)CC3)nc2)n1 (stereo in doubt; form 1) [listing 2 of 2 here]
9,2,CC(C)Oc1cncc(-c2ccc(C(=O)NC(C)(C)c3cncc(NS(=O)(=O)C4CC4)n3)c(F)c2)n1
10,30,CCOc1cncc(-c2ccc(NC(=O)C(C)(OC)c3cncc(NS(=O)(=O)C4CC4)n3)nc2)n1 (stereo in doubt; form 2)
11,2,CCOc1cncc(-c2ccc(NC(=O)C(F)(CC)c3cncc(NS(=O)(=O)C4CC4)n3)nc2)n1 (stereo in doubt; form 3)
12,30,CCOc1cncc(-c2ccc(NC(=O)C(CC)c3cccc(NS(=O)(=O)C4CC4)n3)cc2)n1 (stereo not drawn)
13,> 60,CCOc1cncc(-c2ccc(NC(=O)C(C)(OC)c3cncc(NS(=O)(=O)C4CC4)n3)nc2)n1 (stereo in doubt; form 1)
